Legend:
[1] = target: catalytic domain (JH1, amino acids 808-1132) of human JAK2 (Homo sapiens (Human), UniProt O60674); test: JAK2 HTRF Enzyme Activity Assay; type: biochemical; settings: JAK2 0.015 nM, ATP (30 μM or 1 mM), 60 minutes at 25° C.
Description: Example D. JAK2 HTRF Enzyme Activity Assay
JAK2 enzyme activity assays utilize catalytic domain (JH1, amino acids 808-1132) of human JAK2 expressed as N-terminal His-tagged protein in a baculovirus expression system (BPS Bioscience, Catalog #40450). The assays was conducted in black 384-well polystyrene plates in a final reaction volume of 20 μL. JAK2 (0.015 nM) was incubated with compounds (100 nL serially diluted in DMSO) in the presence of ATP (30 μM or 1 mM) and 500 nM Biotin-labeled […] (SEQ ID NO.: 1) peptide (BioSource International, custom synthesis) in assay buffer (50 mM Tris, pH=7.5, 10 mM MgCl2, 0.01% Brij-35, 0.1% BSA, 1 mM EGTA, 5% Glycerol and 5 mM DTT) for 60 minutes at 25° C. The reactions were stopped by the addition of 10 μL of detection buffer (50 mM Tris, pH 7.8, 0.5 mg/mL BSA, 150 mM NaCl), supplemented with EDTA, LANCE Eu-W1024 anti-phosphotyrosine (PY20), (PerkinElmer, Catalog #AD0067) and Streptavidin SureLight APC (PerkinElmer Catalog #CR130-100), for a final concentration of 15 mM, 1.5 nM and 75 nM, respectively. HTRF signals were read after 30 minutes incubation at room temperature on a PHERAstar FS plate reader (BMG LABTECH). Data was analyzed with IDBS XLfit and GraphPad Prism 5.0 software using a four parameter dose response curve to determine IC50 for each compound.

[2] = target: catalytic domain (JH1, amino acids 826-1132) of human JAK2 (Homo sapiens (Human), UniProt O60674); test: JAK2 LanthaScreen JH1 Binding Assay; settings: JAK2 JH1 1.5 nM, 50 nM fluorescent tracer, 2 hours at 25° C.; read-out: JH1 BIND IC50
Description: Example A. JAK2 LanthaScreen JH1 Binding Assay
(§1) JAK2 JH1 binding assay utilizes catalytic domain (JH1, amino acids 826-1132) of human JAK2 expressed as N-terminal FLAG-tagged, biotinylated protein in a baculovirus expression system (Carna Biosciences, Product #08-445-20N). The assay was conducted in black 384-well polystyrene plates in a final reaction volume of 20 μL. JAK2 JH1 (1.5 nM) was incubated with compounds (100 nL serially diluted in DMSO) in the presence of 50 nM Fluorescent JAK2-JH1 Tracer and 0.5 nM Streptavidin-Tb cryptate (Cisbio Part #610SATLB) in assay buffer (50 mM Tris, pH=7.5, 10 mM MgCl2, 0.01% Brij-35, 0.1% BSA, 1 mM EGTA, 5% Glycerol and 5 mM DTT). Non-specific binding was accessed in the presence of 2 mM ATP. After incubation for 2 hours at 25° C., LanthaScreen signals were read on a PHERAstar FS plate reader (BMG LABTECH). Data was analyzed with IDBS XLfit and GraphPad Prism 5.0 software using a four parameter dose response curve to determine IC50 for each compound.

[3] = target: pseudo-kinase domain (JH2, amino-acids 536-812) of human V617F mutant JAK2 (Homo sapiens (Human), UniProt O60674, F794H/V617F/W659A/W777A); test: JAK2 LanthaScreen JH2-V617F Binding Assay; settings: JAK2 JH2-V617F 0.26 nM, 50 nM fluorescent tracer, 1 hour at 25° C.; read-out: JH2 BIND V617F IC50
Description: The assay was conducted in black 384-well polystyrene plates in a final reaction volume of 20 μL. […] Non-specific binding was accessed in the presence of 2 mM ATP. After incubation for 1 hour at 25° C., LanthaScreen signals were read on a PHERAstar FS plate reader (BMG LABTECH). Data was analyzed with IDBS XLfit and GraphPad Prism 5.0 software using a four parameter dose response curve to determine IC50 for each compound.

[4] = target: pseudo-kinase domain (JH2, amino-acids 536-812) of human Wild Type JAK2 (Homo sapiens (Human), UniProt O60674, F794H/W659A/W777A); test: JAK2 LanthaScreen JH2-WT Binding Assay; settings: JAK2 JH2-WT 0.145 nM, 50 nM fluorescent tracer, 1 hour at 25° C.; read-out: JH2 BIND WT IC50
Description: Example B. JAK2 LanthaScreen JH2-WT Binding Assay
as §1, with “The” for “JAK2 JH1 binding assay utilizes catalytic domain (JH1, amino acids 826-1132) of human JAK2 expressed as N-terminal FLAG-tagged, biotinylated protein in a baculovirus expression system (Carna Biosciences, Product #08-445-20N). The”, “JH2-WT (0.145” for “JH1 (1.5”, “JAK2-JH2” for “JAK2-JH1”, “Tracer (MedChem Express Catalog #HY-102055)” for “Tracer”, “0.25” for “0.5”, “1 hour” for “2 hours”

catalytic domain (JH1, amino acids 808-1132) of human JAK2, sequence (O60674 808-1132): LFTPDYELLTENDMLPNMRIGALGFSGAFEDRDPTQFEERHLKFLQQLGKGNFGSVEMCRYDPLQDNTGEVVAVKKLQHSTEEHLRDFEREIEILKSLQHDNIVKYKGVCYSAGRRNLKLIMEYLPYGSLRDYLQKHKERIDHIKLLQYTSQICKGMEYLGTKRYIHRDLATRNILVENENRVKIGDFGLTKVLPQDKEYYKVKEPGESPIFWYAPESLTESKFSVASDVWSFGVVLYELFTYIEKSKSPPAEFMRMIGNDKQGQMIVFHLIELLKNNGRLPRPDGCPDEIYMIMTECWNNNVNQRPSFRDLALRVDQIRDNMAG
pseudo-kinase domain (JH2, amino-acids 536-812) of human Wild Type JAK2, sequence (O60674 536-812 W659A/W777A/F794H): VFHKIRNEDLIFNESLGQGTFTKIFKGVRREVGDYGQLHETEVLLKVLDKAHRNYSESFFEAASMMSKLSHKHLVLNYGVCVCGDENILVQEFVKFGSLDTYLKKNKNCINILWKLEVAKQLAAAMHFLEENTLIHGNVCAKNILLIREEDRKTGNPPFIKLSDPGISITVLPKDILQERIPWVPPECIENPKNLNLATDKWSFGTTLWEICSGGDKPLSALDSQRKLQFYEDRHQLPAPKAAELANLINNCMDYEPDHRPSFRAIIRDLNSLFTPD
catalytic domain (JH1, amino acids 826-1132) of human JAK2, sequence (O60674 826-1132): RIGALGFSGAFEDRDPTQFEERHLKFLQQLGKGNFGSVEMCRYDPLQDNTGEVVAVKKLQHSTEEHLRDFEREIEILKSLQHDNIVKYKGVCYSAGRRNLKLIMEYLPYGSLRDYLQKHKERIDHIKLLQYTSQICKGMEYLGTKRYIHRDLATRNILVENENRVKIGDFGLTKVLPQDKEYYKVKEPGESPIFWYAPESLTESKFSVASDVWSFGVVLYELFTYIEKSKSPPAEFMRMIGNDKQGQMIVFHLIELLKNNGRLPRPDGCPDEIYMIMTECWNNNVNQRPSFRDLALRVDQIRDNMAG
pseudo-kinase domain (JH2, amino-acids 536-812) of human V617F mutant JAK2, sequence (O60674 536-812 V617F/W659A/W777A/F794H): as the sequence (O60674 536-812 W659A/W777A/F794H) above, with V82F counted along it

Structure (SMILES): COc1ccc(-c2c(C3CC3)[nH]c3ncc4c(c23)CN(c2ccc(C(=O)O)cc2)C(=O)N4C)cc1 [Example 26, 4-(8-Cyclopropyl-9-(4-methoxyphenyl)-4-methyl-3-oxo-1,3,4,7-tetrahydro-2H-pyrrolo[3′,2′:5,6]pyrido[3,4-d]pyrimidin-2-yl)benzoic acid]
- IC50 [1]: > 2500 nM
- IC50 [2]: > 2500 nM
- IC50 [3]: 100 to 500 nM
- IC50 [4]: 100 to 500 nM
